Holding throughout (assay type): biochemical
One experiment addresses T1, CYP1A2 (Homo sapiens, UniProt P05177).
T1 construct: 0.1 mg/mL protein human liver microsomes (BD Gentest); tissue BD Gentest; host or cells: human liver microsomes
T1 sequence (P05177 1-516): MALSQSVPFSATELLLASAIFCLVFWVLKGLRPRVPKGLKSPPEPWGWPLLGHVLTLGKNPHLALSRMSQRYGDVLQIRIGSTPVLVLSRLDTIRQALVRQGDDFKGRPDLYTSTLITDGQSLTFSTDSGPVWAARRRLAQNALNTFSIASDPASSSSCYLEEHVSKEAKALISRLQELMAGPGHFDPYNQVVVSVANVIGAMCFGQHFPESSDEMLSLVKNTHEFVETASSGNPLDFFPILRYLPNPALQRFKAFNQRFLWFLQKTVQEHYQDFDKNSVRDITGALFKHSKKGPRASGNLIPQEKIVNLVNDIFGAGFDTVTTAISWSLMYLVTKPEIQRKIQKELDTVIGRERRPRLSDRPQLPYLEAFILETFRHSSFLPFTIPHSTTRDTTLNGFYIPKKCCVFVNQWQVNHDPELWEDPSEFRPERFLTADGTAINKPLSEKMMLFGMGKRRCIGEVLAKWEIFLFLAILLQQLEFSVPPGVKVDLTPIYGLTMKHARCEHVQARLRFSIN
Put plainly: Cocktail assay for CYPs, phenacetin O-deethylation (CYP1A2), human liver microsomes. The following applies: 10 μM phenacetin, 0.1 mg/mL human liver microsomes, 10 min at 37° C.; read-out: CYP IC50 (nM) 1A2. The method, then: (§1) Determination of IC50 in a Cocktail Assay for CYPs 1A2, 2C9, 2C19, 2D6 and 3A4:
(§2) This assay was performed in a standard 96-well plate design. IC50 values were calculated from the percent inhibition observed for each test compound at 6 concentrations (for example, 0.0032, 0.016, 0.08, 0.4, 2 and 10 μM). The incubation substrate mix contains 10 μM phenacetin (1A2), 5 μM diclofenac (2C9), 30 μM mephenytoin (2C19), 5 μM dextromethorphan (2D6) and 2 μM midazolam (3A4), 0.1 mg/mL protein human liver microsomes (BD Gentest), 1 mM NAPDH, 3.3 mM MgCl2 and 100 mM potassium phosphate buffer (pH 7.4). The production of the metabolite of each probe substrate was determined after incubation for 10 min at 37° C. Quantitation of the metabolite peak area ratio against an internal standard (tolbutamide) was determined by LC/MS/MS analysis following acetonitrile treatment of the incubations.
(§3) Samples were analyzed in the MRM mode with a SCIEX API-4000 mass spectrometer (Applied Biosystems, Foster City, Calif.), with a Shimadzu LC-20 AD pump (Shimadzu corporation, Kyoto, JP) and a CTC PAL autosampler (Agilent Technologies, Switzerland). A Phenomenex, Luna, […], 100 A, 2.00×30 mm HPLC column was used for the separation. The mobile phases were: (A) 0.1% formic acid in water and (B) 0.1% formic acid in acetonitrile. The binary gradient was as follows.
(§4) The peak area ratio of the analyte to the internal standard was used to quantify the metabolite. The values of peak area ratios in the presence of test compound were compared to those of maximum or minimum controls and were expressed as % inhibition by interpolating between the maximum and minimum peak area ratios. Incubations with no inhibitor were defined as the maxima. The following equation was used to calculate the % inhibition: [1−[(X−Low control)/(High control−Low control)]]*100 For the IC50 calculation, SigmaPlot was used to plot the mean % inhibition versus the test compound concentrations and for non-linear regression analysis of the data. Depending on the range of data points defining the inhibition curve, the data may have been fit to the 4-parameter logistic equation.
(In general: Liver microsomes are vesicles of endoplasmic reticulum, rich in cytochrome P450 enzymes.)

The next experiment has as its target T2, CYP2C9 (Homo sapiens, UniProt P11712).
T2 construct: 0.1 mg/mL protein human liver microsomes (BD Gentest); tissue BD Gentest; host or cells: human liver microsomes
Nature of the experiment: Cocktail assay for CYPs, diclofenac 4′-hydroxylation (CYP2C9), human liver microsomes. The following applies: 0.1 mg/mL human liver microsomes, 10 min at 37° C. The method, then:
as §1
as §2, with “IC50 values were calculated from the percent inhibition observed for each test compound at 6 concentrations (for example, 0.0032, 0.016, 0.08, 0.4, 2 and 10 μM).” left out
as §3, §4

A further experiment has as its target T3, CYP2C19 (Homo sapiens, UniProt P33261).
T3 construct: 0.1 mg/mL protein human liver microsomes (BD Gentest); tissue BD Gentest; host or cells: human liver microsomes
Put plainly: Cocktail assay for CYPs, mephenytoin 4′-hydroxylation (CYP2C19), human liver microsomes. To be noted: 0.1 mg/mL human liver microsomes, 10 min at 37° C. The method, then: as §1
as §2, with “IC50 values were calculated from the percent inhibition observed for each test compound at 6 concentrations (for example, 0.0032, 0.016, 0.08, 0.4, 2 and 10 μM).” left out
as §3, §4

For the next experiment, the target named is T4, CYP2D6 (Homo sapiens, UniProt P10635).
T4 construct: 0.1 mg/mL protein human liver microsomes (BD Gentest); tissue BD Gentest; host or cells: human liver microsomes
Nature of the experiment: Cocktail assay for CYPs, dextromethorphan O-demethylation (CYP2D6), human liver microsomes. To be noted: 5 μM dextromethorphan, 0.1 mg/mL human liver microsomes, 10 min at 37° C.; read-out: CYP IC50 (nM) 2D6. The method, then:
as §1, §2, §3, §4

The target of experiment [1] is T5, CYP3A4 (Homo sapiens, UniProt P08684). Nature of the experiment: Cocktail assay for CYPs, midazolam 1′-hydroxylation (CYP3A4), human liver microsomes. Details: 0.1 mg/mL protein human liver microsomes (BD Gentest); tissue BD Gentest; host or cells: human liver microsomes. The following applies: 2 μM midazolam, 0.1 mg/mL human liver microsomes, 10 min at 37° C.; read-out: CYP IC50 (nM) 3A4 (MDZ). The method, then: as §1, §2, §3, §4
Target sequence in this assay (P08684 whole entry): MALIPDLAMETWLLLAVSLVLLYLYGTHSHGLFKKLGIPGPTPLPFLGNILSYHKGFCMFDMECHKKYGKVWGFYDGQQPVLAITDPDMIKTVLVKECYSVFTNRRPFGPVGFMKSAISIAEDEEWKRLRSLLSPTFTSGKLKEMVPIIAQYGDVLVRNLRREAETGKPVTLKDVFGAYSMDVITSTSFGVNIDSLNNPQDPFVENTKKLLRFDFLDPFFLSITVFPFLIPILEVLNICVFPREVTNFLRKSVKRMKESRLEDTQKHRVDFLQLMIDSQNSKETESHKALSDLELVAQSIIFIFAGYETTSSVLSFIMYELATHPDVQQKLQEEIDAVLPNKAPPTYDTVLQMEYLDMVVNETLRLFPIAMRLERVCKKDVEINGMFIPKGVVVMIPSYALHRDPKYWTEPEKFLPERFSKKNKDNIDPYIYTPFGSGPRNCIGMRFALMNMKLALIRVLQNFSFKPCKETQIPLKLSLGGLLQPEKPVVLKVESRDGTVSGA

Experiment [2] deals with T5, CYP3A4. Nature of the experiment: IC50 vs CYP3A by inhibition of lopinavir metabolism in human liver microsomes. Details: 0.01 mg/mL protein human liver microsomes (BD Gentest); tissue BD Gentest; host or cells: human liver microsomes. The following applies: 1.5 μM lopinavir, 0.01 mg/mL human liver microsomes, 8 min at 37° C.; read-out: CYP IC50 (nM) 3A4 (LPV). The method, then:
Determination of IC50 vs CYP3A by Measurement of Inhibition of Lopinavir Metabolism
This assay was performed in a standard 96-well plate design. IC50 values were calculated from the percent inhibition observed for each test compound at 6 concentrations (for example, 0.098, 0.391, 1.56, 6.25, 25 and 100 nM). The incubation substrate mix contains 1.5 μM lopinavir, 0.01 mg/mL protein human liver microsomes (BD Gentest), 1 mM NAPDH, 3.3 mM MgCl2 and 100 mM potassium phosphate buffer (pH 7.4). The production of the sum of three hydroxylated metabolites (M2: 6-hydroxy lopinavir, M3: 4-hydroxy lopinavir, M4: 4-hydroxy lopinavir (epimer of M3), Kumar et al., 1999) was determined after incubation for 8 min at 37° C. Quantitation of the metabolite peak area ratio against an internal standard (tolbutamide) was determined by LC/MS/MS analysis following acetonitrile treatment of the incubations.
Samples were analyzed in the MRM mode with a SCIEX API-4000 mass spectrometer (Applied Biosystems, Foster City, Calif.), with a Shimadzu LC-20 AD pump (Shimadzu corporation, Kyoto, JP) and a CTC PAL autosampler (Agilent Technologies, Switzerland). A Phenomenex, Luna, 5 μm, 100 A, 2.00×30 mm HPLC column was used for the separation. The mobile phases were: (A) 0.1% formic acid in water and (B) 0.1% formic acid in acetonitrile. The binary gradient was as follows.
The peak area ratio of the analyte to the internal standard was used to quantify the metabolite. The values of peak area ratios in the presence of test compound were compared to those of maximum or minimum controls and were expressed as % inhibition by interpolating between the maximum and minimum peak area ratios. Incubations with no inhibitor were defined as the maxima and with 5 μM ketoconazole were defined as the minima.
The following equation was used to calculate the % inhibition: [1−[(X−Low control)/(High control−Low control)]]*100
For the IC50 calculation, SigmaPlot was used to plot the mean % inhibition versus the test compound concentrations and for non-linear regression analysis of the data. Depending on the range of data points defining the inhibition curve, the data may have been fit to the 4-parameter logistic equation.
Target sequence in this assay (P08684 2-503): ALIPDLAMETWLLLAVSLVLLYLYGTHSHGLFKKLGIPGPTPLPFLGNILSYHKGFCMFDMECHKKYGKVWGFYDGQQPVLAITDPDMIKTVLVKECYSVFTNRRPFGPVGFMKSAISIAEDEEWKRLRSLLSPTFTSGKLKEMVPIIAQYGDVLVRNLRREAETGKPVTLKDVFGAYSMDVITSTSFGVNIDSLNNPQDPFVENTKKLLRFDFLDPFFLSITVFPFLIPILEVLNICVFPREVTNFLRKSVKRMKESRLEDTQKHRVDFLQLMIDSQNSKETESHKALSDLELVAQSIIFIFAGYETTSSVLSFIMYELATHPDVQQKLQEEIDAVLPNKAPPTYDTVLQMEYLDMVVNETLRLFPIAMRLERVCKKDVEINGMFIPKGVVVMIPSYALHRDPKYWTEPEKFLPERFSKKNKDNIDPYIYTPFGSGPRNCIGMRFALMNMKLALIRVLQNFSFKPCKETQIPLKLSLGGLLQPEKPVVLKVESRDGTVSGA

[3] abbreviates: 5 μM diclofenac, read-out: CYP IC50 (nM) 2C9.
[4] abbreviates: 30 μM mephenytoin, read-out: CYP IC50 (nM) 2C19.

8 molecules from patent publication US9975888B2, “Aryl linked imidazole and triazole derivatives and methods of use thereof for improving the pharmacokinetics of a drug” (MERCK SHARP & DOHME CORP., priority 2013, dated 2018) can be followed below.

Read-outs that look alike come from different tables or passages of the source.

T3 sequence (P33261 whole entry): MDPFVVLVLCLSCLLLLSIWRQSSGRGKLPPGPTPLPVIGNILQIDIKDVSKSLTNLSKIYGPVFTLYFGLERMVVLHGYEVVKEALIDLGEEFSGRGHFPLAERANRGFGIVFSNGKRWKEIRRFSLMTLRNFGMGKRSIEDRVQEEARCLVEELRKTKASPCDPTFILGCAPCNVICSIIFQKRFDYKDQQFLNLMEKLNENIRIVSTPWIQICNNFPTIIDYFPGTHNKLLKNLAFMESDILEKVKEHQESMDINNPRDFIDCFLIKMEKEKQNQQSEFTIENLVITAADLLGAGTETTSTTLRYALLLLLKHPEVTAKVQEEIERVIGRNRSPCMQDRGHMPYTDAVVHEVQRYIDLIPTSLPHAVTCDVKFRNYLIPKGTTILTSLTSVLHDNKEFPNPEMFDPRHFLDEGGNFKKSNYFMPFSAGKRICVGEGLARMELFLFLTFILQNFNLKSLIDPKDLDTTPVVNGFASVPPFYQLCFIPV
T2 sequence (P11712 whole entry): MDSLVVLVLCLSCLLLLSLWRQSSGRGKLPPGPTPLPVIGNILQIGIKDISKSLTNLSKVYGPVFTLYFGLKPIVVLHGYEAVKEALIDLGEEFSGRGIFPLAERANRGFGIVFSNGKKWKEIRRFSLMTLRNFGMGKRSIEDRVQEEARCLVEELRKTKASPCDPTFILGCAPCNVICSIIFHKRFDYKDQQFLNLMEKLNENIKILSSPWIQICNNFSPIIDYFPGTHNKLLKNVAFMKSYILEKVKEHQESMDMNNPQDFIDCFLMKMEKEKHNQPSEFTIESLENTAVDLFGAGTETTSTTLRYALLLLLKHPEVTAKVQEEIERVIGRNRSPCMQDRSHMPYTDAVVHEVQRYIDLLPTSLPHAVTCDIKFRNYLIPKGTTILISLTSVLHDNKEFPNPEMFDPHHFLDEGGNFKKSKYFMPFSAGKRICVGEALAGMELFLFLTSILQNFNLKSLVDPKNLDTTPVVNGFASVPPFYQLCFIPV
T4 sequence (P10635 whole entry): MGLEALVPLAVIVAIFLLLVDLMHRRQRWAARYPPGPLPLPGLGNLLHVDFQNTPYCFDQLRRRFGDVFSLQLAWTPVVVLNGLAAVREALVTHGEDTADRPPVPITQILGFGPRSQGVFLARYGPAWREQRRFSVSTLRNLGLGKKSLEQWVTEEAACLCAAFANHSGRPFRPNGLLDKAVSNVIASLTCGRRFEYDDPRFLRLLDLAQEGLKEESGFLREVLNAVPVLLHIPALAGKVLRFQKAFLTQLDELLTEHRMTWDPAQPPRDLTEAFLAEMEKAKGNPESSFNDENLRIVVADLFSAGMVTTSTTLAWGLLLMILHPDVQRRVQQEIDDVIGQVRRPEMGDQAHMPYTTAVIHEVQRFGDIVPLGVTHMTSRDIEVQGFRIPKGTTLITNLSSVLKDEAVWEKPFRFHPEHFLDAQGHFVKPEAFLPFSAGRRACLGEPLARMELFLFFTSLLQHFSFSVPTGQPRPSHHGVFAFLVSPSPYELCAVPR

A word on the IC50: it is the point on the concentration scale where inhibition reaches its midpoint. As for `O=S(=O)(c1ccc(N2CCN(CCO)CC2)nc1)N1CCCC1c1ccccc1-c1cncn1CCc1ccc(F)cc1` (single isomer, unassigned) [Compound 35b, (R or S)-2-(4-(5-((2-(2-(1-(4-fluorophenethyl)-1H-imidazol-5-yl)phenyl)pyrrolidin-1-yl)sulfonyl)pyridin-2-yl)piperazin-1-yl)ethanol], the IC50 was over 10000 nM on CYP1A2; 6930 nM on CYP2C9 (setting [3]); 9720 nM at CYP2C19 (setting [4]); 3060 nM on CYP2D6; 4 nM at CYP3A4 [1]; 0.9 nM on CYP3A4 [2].
In the case of `C[C@H](NS(=O)(=O)c1cnc(N2CCN3C[C@H](O)C[C@H]3C2)s1)c1ccccc1-c1cncn1CCc1ccc(F)cc1` [Compound 6b, N-((S)-1-(2-(1-(4-fluorophenethyl)-1H-imidazol-5-yl)phenyl)ethyl)-2-((7R,8aS)-7-hydroxy-hexahydro-pyrrolo[1,2-a]pyrazin-2(1H)-yl)thiazole-5-sulfonamide], the IC50 at CYP1A2 was over 10000 nM; at CYP2C9 (CYP IC50 (nM) 2C9, 5 μM diclofenac), 5450 nM; against CYP2C19 (CYP IC50 (nM) 2C19, 30 μM mephenytoin), over 10000 nM; at CYP2D6 it was 3500 nM; on CYP3A4 [1], 30 nM; at CYP3A4 [2], 40.3 nM.
With `CN(C)c1ccc(S(=O)(=O)N2CCCC2c2ccccc2-c2cncn2CCc2ccc(F)cc2)cn1` (single isomer, unassigned) [Compound 28a, (R or S)-5-((2-(2-(1-(4-fluorophenethyl)-1H-imidazol-5-yl)phenyl)pyrrolidin-1-yl)sulfonyl)-N,N-dimethylpyridin-2-amine], the IC50 at CYP1A2 was over 10000 nM; at CYP2C9 (setting [3]) it was 1520 nM; at CYP2C19 (setting [4]) it was 2390 nM; on CYP2D6 it was 6990 nM; at CYP3A4 [1], 3.5 nM; on CYP3A4 [2], 0.7 nM.
For `O=S(=O)(c1cnc(Cl)c(Br)c1)N1CCCC1c1ccccc1-c1cncn1CCc1ccc(F)cc1` (stereo not shown) [Compound 25, 3-bromo-2-chloro-5-((2-(2-(1-(4-fluoro-phenethyl)-1H-imidazol-5-yl)phenyl)pyrrolidin-1-yl)sulfonyl) pyridine], the IC50 is 9490 nM on CYP1A2; 2220 nM at CYP2C9 (setting [3]); 1890 nM at CYP2C19 (setting [4]); 2140 nM at CYP2D6; 50.3 nM at CYP3A4 [1]; 23 nM on CYP3A4 [2].
As to `CC(C)(C)OC(=O)N1CCCC1c1ccccc1-c1cncn1CCc1ccc(F)cc1` (stereo not shown) [Compound 38, tert-butyl 2-(2-(1-(4-fluorophenethyl)-1H-imidazol-5-yl)phenyl) pyrrolidine-1-carboxylate], the IC50 at CYP1A2 was 3350 nM; at CYP2C9 (setting [3]) it was 1770 nM; at CYP2C19 (setting [4]) it was 2300 nM; on CYP2D6, 6860 nM; on CYP3A4 [1], 6.7 nM; on CYP3A4 [2] it was 5.5 nM.
For `CN1CCN(c2ncc(S(=O)(=O)N3CCc4c(ncnc4-c4cncn4CCc4ccc(F)cc4)C3)s2)CC1` [Compound 67, 5-((4-(1-(4-fluorophenethyl)-1H-imidazol-5-yl)-5,6-dihydropyrido[3,4-d]pyrimidin-7(8H)-yl)sulfonyl)-2-(4-methylpiperazin-1-yl)thiazole], the IC50 was over 10000 nM at CYP1A2; over 10000 nM on CYP2C9 (setting [3]); over 10000 nM on CYP2C19 (setting [4]); 6510 nM at CYP2D6; 123 nM at CYP3A4 [1]; over 100 nM on CYP3A4 [2].
For the molecule `CN1CCCC1c1ccccc1-c1cncn1CCc1ccc(F)cc1` (single isomer, unassigned) [Compound 45a, (R or S)-1-(4-fluorophenethyl)-5-(2-(1-methylpyrrolidin-2-yl)phenyl)-1H-imidazole], the IC50 is over 10000 nM on CYP1A2; over 10000 nM at CYP2C9 (setting [3]); 7790 nM on CYP2C19 (setting [4]); 4220 nM on CYP2D6; 14.3 nM at CYP3A4 [1].
For the molecule `CN1CCCC1c1ccccc1-c1cncn1CCc1ccc(F)cc1` (single isomer, unassigned) [Compound 45b, (R or S)-1-(4-fluorophenethyl)-5-(2-(1-methylpyrrolidin-2-yl)phenyl)-1H-imidazole], the IC50 on CYP1A2 was over 10000 nM; on CYP2C9 (setting [3]), over 10000 nM; on CYP2C19 (setting [4]), over 10000 nM; on CYP2D6, 2480 nM; on CYP3A4 [1] it was 22.8 nM.
